Here are results for 16 compounds from patent publication US12090146B2, “Substituted-pyridinyl compounds and uses thereof” (Bionomics Limited, priority 2018, dated 2024).

Assay [1] deals with T1, hKv3.1 (Homo sapiens, UniProt P48547).
T1 construct: expressed in transfected cells
T1 sequence (P48547 1-511): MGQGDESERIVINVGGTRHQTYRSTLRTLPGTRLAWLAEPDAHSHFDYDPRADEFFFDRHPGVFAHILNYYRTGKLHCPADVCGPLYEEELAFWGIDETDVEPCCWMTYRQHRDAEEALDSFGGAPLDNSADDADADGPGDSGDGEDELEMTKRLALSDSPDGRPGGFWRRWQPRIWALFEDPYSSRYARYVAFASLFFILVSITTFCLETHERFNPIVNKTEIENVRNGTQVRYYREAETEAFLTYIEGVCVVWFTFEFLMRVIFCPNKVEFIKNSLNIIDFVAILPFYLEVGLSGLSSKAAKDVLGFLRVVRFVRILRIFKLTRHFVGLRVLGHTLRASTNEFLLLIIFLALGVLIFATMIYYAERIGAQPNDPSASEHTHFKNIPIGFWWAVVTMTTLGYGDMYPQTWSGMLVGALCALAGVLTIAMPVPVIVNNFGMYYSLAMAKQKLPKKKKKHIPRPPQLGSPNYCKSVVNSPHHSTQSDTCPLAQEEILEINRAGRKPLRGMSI
The assay can be described thus: Automated patch clamp (Patchliner) whole-cell electrophysiology, Kv3.1. It is filed as cell-based. The conditions noted are these: 10 μM compound, CHO-K1 cells stably expressing hKv3.1; for Kv3.1 Activity at 10 μM Potentiation (%): % potentiation of peak current at −10 mV voltage step vs vehicle; for Kv3.1 Activity at 10 μM Voltage Shift (mV): voltage shift of the IV curve at V1/2. The protocol: (§1) hKv3.1, hKv3.2, hKv3.3, and hKv3.4 were stably expressed in CHO-K1 (Chinese hamster ovary) cells and kept under constant antibiotic selection. For in vitro assays, cells were maintained in appropriate growth medium at 37° C. and 5% CO2 in a humidified incubator.
(§2) hKv3.X expressing cells were plated in T-25 flasks for 3-4 days at 37° C. (no selection antibiotic) prior to use and grown to 80% confluence. Cells were washed twice with PBS (calcium and magnesium free) and detached with a 5-minute treatment at 37° C. with 2-3 mls of Accutase®. Cells were collected, and flask was washed in CHO-SFM II media (Life Technologies Gibco), centrifuged for 2 minutes at ˜110×g and resuspended to obtain a single cell suspension of ˜2-3×10^6 cells/ml.
(§3) The intracellular solution contained the following (in mM): KCl 50, NaCl 10, KF 60, EGTA 20, HEPES 10, adjusted to pH 7.2 with KOH and an osmolarity of 285 mOsmol. Seal enhancer was purchased from Nanion (80 mM NaCl, 3 mM KCl, 10 mM MgCl2, 35 mM CaCl2), 10 mM HEPES, pH7.4, 298 mOsmol. The external solution contained (in mM): NaCl 140, KCl 4, CaCl2) 2, MgCl2 1, HEPES 10, Glucose 5, adjusted to pH7.4 and an osmolarity of 298 mOsmol.
(§4) All compounds were initially tested at 10 uM at a final DMSO concentration of 0.33%. Compounds were dissolved in dimethylsulfoxide (DMSO) at a stock concentration of 30 mM. The compound was further diluted 1:10 to give a stock concentration of 3 mM in DMSO. The final assay solution was diluted 1:300 in External solution to give a final concentration of 10 uM. For the DMSO Control Buffer 30 uL of DMSO was added to 10 mL buffer.
(§5) All electrophysiological recordings were performed at ambient temperature (21-23° C.) using automated patch clamp (Patchliner, Nanion Technologies GmbH) in the whole-cell configuration.
(§6) Cell membrane potentials were held at −80 mV, and currents were evoked by voltage steps (1000 ms duration) from −60 to +60 mV in 10 mV increments. This was performed first with vehicle (0.33% DMSO) and then with 10 uM compound, after a 3-minute incubation period. Data was taken from 4 cells per assay.
(§7) The recordings were analysed and selected using peak current amplitude (>100 pA at the −10 mV voltage step) in the absence of compound to eliminate unsuitable cells from analysis. Peak current amplitude was measured and recorded for each voltage step and data was normalised to the maximum current at +60 mV. The normalised Kv3.x currents following addition of the compound were then compared with the currents recorded prior to compound addition (vehicle control). Positive modulation was determined as % potentiation at the voltage step of −10 mV=[current (cmpd)/current (veh)]*100−100. % potentiation ≥50% was considered acceptable. In addition, voltage shift of the IV curve at V1/2 was measured. V1/2 of ≥−5 mV was also considered acceptable. IV curves were plotted in GraphPad Prism (software version 6.0) and fitted with a Boltzmann equation, where V1/2 is the voltage at half-maximal activation.

Assay [2] concerns the target T2, hKv3.2 (Homo sapiens, UniProt Q96PR1).
T2 construct: expressed in transfected cells
T2 sequence (Q96PR1 1-638): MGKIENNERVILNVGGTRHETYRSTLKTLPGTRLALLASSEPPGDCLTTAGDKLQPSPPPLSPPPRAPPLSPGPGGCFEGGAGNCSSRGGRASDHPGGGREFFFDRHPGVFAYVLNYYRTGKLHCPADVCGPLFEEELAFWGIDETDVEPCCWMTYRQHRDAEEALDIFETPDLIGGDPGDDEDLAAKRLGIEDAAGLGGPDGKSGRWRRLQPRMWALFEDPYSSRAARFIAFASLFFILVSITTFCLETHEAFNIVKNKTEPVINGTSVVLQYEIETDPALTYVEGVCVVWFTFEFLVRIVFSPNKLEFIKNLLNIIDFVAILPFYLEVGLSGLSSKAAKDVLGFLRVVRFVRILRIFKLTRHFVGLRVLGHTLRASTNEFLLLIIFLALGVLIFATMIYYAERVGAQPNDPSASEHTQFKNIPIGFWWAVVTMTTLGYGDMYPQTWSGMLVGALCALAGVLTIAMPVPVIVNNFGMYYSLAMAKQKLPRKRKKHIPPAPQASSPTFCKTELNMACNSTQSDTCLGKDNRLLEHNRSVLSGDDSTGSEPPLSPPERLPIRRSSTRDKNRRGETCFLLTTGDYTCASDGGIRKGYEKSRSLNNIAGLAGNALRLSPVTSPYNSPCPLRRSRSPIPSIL
In words: Automated patch clamp (Patchliner) whole-cell electrophysiology, Kv3.2. In kind it is cell-based. The conditions noted are these: 10 μM compound, CHO-K1 cells stably expressing hKv3.2; for activation at 10 µM: % potentiation of peak current at −10 mV voltage step vs vehicle; for Kv3.2 Activity at 10 μM Voltage Shift (mV): voltage shift of the IV curve at V1/2. The protocol:
as §1, §2, §3, §4, §5, §6, §7
(In general: Patch clamp records ionic current or voltage across a cell membrane.)

Take `COc1cc(Oc2cc(N3C(=O)NC(C)(C)C3=O)ccn2)ccc1C` [Example 1, 3-[2-(3-methoxy-4-methyl-phenoxy)-4-pyridyl]-5,5-dimethyl-imidazolidine-2,4-dione]: in assay [1], the “Kv3.1 Activity at 10 μM Potentiation (%)” value was 53% and the “Kv3.1 Activity at 10 μM Voltage Shift (mV)” value is recorded as −2.9 mV. Also, in assay [2], the activation at 10 µM amounted to 21% and the “Kv3.2 Activity at 10 μM Voltage Shift (mV)” value is reported as −1.23 mV.
As to `CC1(C)NC(=O)N(c2ccnc(Oc3ccc4c(c3)CCC4)c2)C1=O` [Example 3, 3-(2-indan-5-yloxy-4-pyridyl)-5,5-dimethyl-imidazolidine-2,4-dione], in assay [1], the “Kv3.1 Activity at 10 μM Potentiation (%)” value was determined as 58% and the “Kv3.1 Activity at 10 μM Voltage Shift (mV)” value was −4.65 mV. In assay [2], the activation at 10 µM came to 66% and the “Kv3.2 Activity at 10 μM Voltage Shift (mV)” value is −6.71 mV.
Regarding `COc1cc(Oc2cc(N3C(=O)NC(C)(C)C3=O)ccn2)ccc1C(F)(F)F` [Example 4, 3-[2-[3-methoxy-4-(trifluoromethyl)phenoxy]-4-pyridyl]-5,5-dimethyl-imidazolidine-2,4-dione], in assay [1], the “Kv3.1 Activity at 10 μM Potentiation (%)” value is 36% and the “Kv3.1 Activity at 10 μM Voltage Shift (mV)” value is −5.13 mV. In addition, in assay [2], the activation at 10 µM worked out at 14% and the “Kv3.2 Activity at 10 μM Voltage Shift (mV)” value is −4.12 mV.
Consider `COc1cc(Oc2cc(N3C(=O)NC(C)(C)C3=O)ccn2)ccc1F` [Example 6, 3-[2-[3-methoxy-4-fluorophenoxy]-4-pyridyl]-5,5-dimethyl-imidazolidine-2,4-dione], for which, in assay [2], the activation at 10 µM stood at 25% and the “Kv3.2 Activity at 10 μM Voltage Shift (mV)” value is −3.18 mV.
`COc1cc(Oc2cc(N3C(=O)NC(C)(C)C3=O)ccn2)ccc1Cl` [Example 8, 3-[2-(4-chloro-3-methoxy-phenoxy)-4-pyridyl]-5,5-dimethyl-imidazolidine-2,4-dione]: in assay [1], the “Kv3.1 Activity at 10 μM Potentiation (%)” value is 32% and the “Kv3.1 Activity at 10 μM Voltage Shift (mV)” value was −4.09 mV. Also, in assay [2], the activation at 10 µM was 22% and the “Kv3.2 Activity at 10 μM Voltage Shift (mV)” value is recorded as −2.39 mV.
On to `CC1(C)NC(=O)N(c2ccnc(Oc3ccc4c(c3)OC(F)(F)O4)c2)C1=O` [Example 9, 3-[2-[(2,2-difluoro-1,3-benzodioxol-5-yl)oxy]-4-pyridyl]-5,5-dimethyl-imidazolidine-2,4-dione], for which, in assay [1], the “Kv3.1 Activity at 10 μM Potentiation (%)” value stood at 80% and the “Kv3.1 Activity at 10 μM Voltage Shift (mV)” value was −6.49 mV. In addition, in assay [2], the activation at 10 µM is 30% and the “Kv3.2 Activity at 10 μM Voltage Shift (mV)” value is −3.92 mV.
For `CC[C@@]1(C)NC(=O)N(c2ccnc(Oc3ccc(C)c(OC)c3)c2)C1=O` [Example 10, (5R)-5-ethyl-3-[2-(3-methoxy-4-methyl-phenoxy)-4-pyridyl]-5-methyl-imidazolidine-2,4-dione], in that order: 72%, −5.46 mV, 21% and −2.67 mV.
For the compound `CC[C@@]1(C)NC(=O)N(c2ccnc(Oc3ccc4c(c3)OC(F)(F)O4)c2)C1=O` [Example 16, (5R)-3-[2-[(2,2-difluoro-1,3-benzodioxol-5-yl)oxy]-4-pyridyl]-5-ethyl-5-methyl-imidazolidine-2,4-dione], in assay [2], the activation at 10 µM is 47% and the “Kv3.2 Activity at 10 μM Voltage Shift (mV)” value is −3.63 mV.
For `COc1cc(Oc2cc(N3C(=O)NC4(CCCCC4)C3=O)ccn2)ccc1C` [Example 24, 3-[2-(3-methoxy-4-methyl-phenoxy)-4-pyridyl]-1,3-diazaspiro[4.5]decane-2,4-dione], in assay [2], the activation at 10 µM amounted to 42% and the “Kv3.2 Activity at 10 μM Voltage Shift (mV)” value is on record as −5.52 mV.
As for `CC[C@@]1(C)NC(=O)N(c2cccc(Oc3ccc4c(c3)OCCC4)n2)C1=O` [Example 64, (5R)-3-(6-chroman-7-yloxy-2-pyridyl)-5-ethyl-5-methyl-imidazolidine-2,4-dione], in assay [1], the “Kv3.1 Activity at 10 μM Potentiation (%)” value is 15% and the “Kv3.1 Activity at 10 μM Voltage Shift (mV)” value is listed as −2.57 mV.
The corresponding values for `CC[C@@]1(C)NC(=O)N(c2cccc(Oc3ccc(C)c(C)c3)n2)C1=O` [Example 65, (5R)-3-[6-(3,4-dimethylphenoxy)-2-pyridyl]-5-ethyl-5-methyl-imidazolidine-2,4-dione] are 22% and −3.79 mV.
Consider `CC[C@@]1(C)NC(=O)N(c2cccc(Oc3cccc4c3CCC4)n2)C1=O` [Example 69, (5R)-5-ethyl-3-(6-indan-4-yloxy-2-pyridyl)-5-methyl-imidazolidine-2,4-dione], for which, in assay [1], the “Kv3.1 Activity at 10 μM Potentiation (%)” value is on record as 73% and the “Kv3.1 Activity at 10 μM Voltage Shift (mV)” value is recorded as −3 mV.
`CC[C@]1(C)NC(=O)N(c2cccc(Oc3ccc(C)c(OC)c3)n2)C1=O` [Example 72, (5S)-5-ethyl-3-[6-(3-methoxy-4-methyl-phenoxy)-2-pyridyl]-5-methyl-imidazolidine-2,4-dione]: in assay [1], the “Kv3.1 Activity at 10 μM Potentiation (%)” value is recorded as 33% and the “Kv3.1 Activity at 10 μM Voltage Shift (mV)” value is recorded as −4.25 mV.
For `COc1cc(Oc2cccc(N3C(=O)NC(C)(C)C3=O)n2)ccc1C` [Example 73, 3-[6-(3-methoxy-4-methyl-phenoxy)-2-pyridyl]-5,5-dimethyl-imidazolidine-2,4-dione], in that order: 26% and −1.61 mV.
In the case of `CC(C)c1cc(Oc2cccc(N3C(=O)NC(C)(C)C3=O)n2)ccc1C#N` [Example 77, 4-[[6-(4,4-dimethyl-2,5-dioxo-imidazolidin-1-yl)-2-pyridyl]oxy]-2-isopropyl-benzonitrile], in assay [1], the “Kv3.1 Activity at 10 μM Potentiation (%)” value is 12% and the “Kv3.1 Activity at 10 μM Voltage Shift (mV)” value is given as −0.95 mV.
With `CC[C@@]1(C)NC(=O)N(c2ccc(F)c(Oc3ccc(C)c(OC)c3)n2)C1=O` [Example 89, (5R)-5-ethyl-3-[5-fluoro-6-(3-methoxy-4-methyl-phenoxy)-2-pyridyl]-5-methyl-imidazolidine-2,4-dione], in assay [2], the activation at 10 µM was 28% and the “Kv3.2 Activity at 10 μM Voltage Shift (mV)” value is listed as −2.58 mV.
